According to US6603046B1, “Bis-aromatic a,β-unsaturated ketones” (Lica Pharmaceuticals A/S, priority 1992, dated 2003):
≈ marks a conversion by molar mass, not a printed value. Where two headings read alike, the source gives them in different places.

Experiments:
[1] = tested on: L. donovani; assay: L. donovani infection in hamsters (Example 9); type: in vivo, syrian golden hamsters (Mesocricetus auratus); settings: i.p. 10 mg per kg two times per day for 7 days
[2] = tested on: human PMN; assay: Zymosan-enhanced chemiluminescence, PMN; type: cell-based; settings: read-out: percentage inhibition of chemiluminescence response to opsonized zymosan (mean ± SEM)
Description: Chemiluminescence. Monocytes were prepared from heparinized blood by metrizoate sodium-Ficoll (the same as lymphocyte proliferation). Polymorphonuclear leucocytes (PMN) were prepared from heparinized blood by dextran sedimentation and metrizoate sodium-Ficoll separation. Remaining erythrocytes were removed by hypotonic lysis. A zymosan-enhanced chemiluminescence assay was used. The assay was performed in a total volume of 5.5 ml at ambient temperature in glass scintillation vials. A Beckman L 8000 scintillation counter (placed under air-conditioned, thermostat controlled, 21±1° C. conditions) was used in the out-of-coincidence mode A 1.1 ml portion of PMN or monocyte suspension (1×10^6 cells per ml) was pre-incubated with 1.1 ml of various concentrations of licochalcone A for 30 min at 37° C. in a rotor at 20 rpm Luminol (5-amino-2,3-dihydro-1,4-phatalazinedione) obtained from Sigma Chemical Co., St Louis, Mo., U.S.A., was maintained as a stock solution of 10 mg/ml in NaOH (0.1 N) and diluted in Krebs-Ringer solution immediately before use. Each vial contained 5×10^5 pre-incubated PMN or monocyte, 4 mg of opsonized zymosan (Sigma), 50 μl of luminol solution, and 4.45 ml of Krebs-Ringer solution containing 5 mM glucose. The final concentration of luminol in the assay mixture was 5×10^−8m.

[3] = tested on: chloroquine resistant P. falciparum DD2 strain; assay: In vitro growth of P. falciparum DD2, 3H-hypoxanthine uptake (Example 15); type: cell-based, Plasmodium falciparum; settings: for Growth in % of control (mean ± SEM): title: percentage inhibition of 3H-hypoxanthine uptake
[4] = tested on: L. gormanii; assay: microbe, parasite or virus in culture; type: cell-based; settings: Fluoribacter gormanii
[5] = tested on: Non-haemolytic streptacocci; assay: MIC, macrodilution (Example 17); type: cell-based, Non-haemolytic streptococci; settings: 1 strain
[6] = tested on: Gram positive cocci; assay: MIC, macrodilution (Example 17), text summary; type: cell-based
[7] = tested on: Helicobacter pylori; assay: MIC on Helicobacter pylori, microaerophilic (Example 18); type: cell-based
Description: Bacteria. 16 recent clinical isolates of Helicobacter pylori from patients with duodenal ulcer or chronic gastritis. […] Staphylococcus aureus ATCC 25923 was used as control strain. The Helicobacter pylori strains were subcultured on chocolate agar plates with cysteine in a microaerophilic atmosphere at 37° C. for 72 hours and kept frozen at −80° C. until assayed. MIC determinations. Macrodilution rows were made with Helicomedia with 2 ml in all vials. […] All dilution rows were inoculated to give a final concentration of 10^5 CFU/ml. The MIC rows were incubated under microaerophilic conditions for […]. […] The control strain Staphylococcus aureus was incubated both aerobically and microaerophilically at 37° C. for 24 hours. All plates were read by the Karber method.

[8] = tested on: Staphylococcus aureus ATCC 25923; assay: MIC on control strain, aerobic and microaerophilic (Example 18); type: cell-based; settings: ATCC25923, 2 h, 2 hours incubation
Description: Staphylococcus aureus ATCC 25923 was used as control strain. The Helicobacter pylori strains were subcultured on chocolate agar plates with cysteine in a microaerophilic atmosphere at 37° C. for 72 hours and kept frozen at −80° C. until assayed.
The MIC rows were incubated under microaerophilic conditions for two hours. Hereafter aliquots of 10 μl were taken from all dilution steps and plated on chocolate agar with cysteine and incubated in a microaerophilic atmosphere for 72 hours at 37° C. The control strain Staphylococcus aureus was incubated both aerobically and microaerophilically at 37° C. for 24 hours. All plates were read by the Karber method.

[9] = tested on: Mycobacteria; type: cell-based
[10] = Absorption study in rats, oral, serum concentration (Example 20); type: in vivo
Description: The absorption pattern and pharmaco-kinetics of licochalcone A in rats given by oral route were determined compared with pharmacokinetics of licochalcone A in rats given intravenously.
Number of rats: 4 for each group […]
Route: Oral, adminitered once.
Sample: 2 ml of blood was drawn 4 times from each rat.
Serum or plasma was diluted with one part of acetonitrile, left for 15 min at 4° C., and centrifugated for 3 min at 10,000 g. An aliquot of the supernatant was chromatographed at 37° C. by HPLC over Spherisorb ODS-2 (5 μm, 120×4.5 mm, Phase Separation LTD, UK) using acetonitrile aqueous acetic acid, 2%, (1:1) as an eluent, flow rate 1.5 ml/min, and UV detection (370 nm and 254 nm).

[11] = tested on: human lymphocytes; assay: Lymphocyte Proliferation Assay, 3H-thymidine incorporation (Example 13); settings: Homo sapiens, Lymphocyte
[12] = tested on: human monocytes/macrophages; assay: Electron microscopy of human monocytes/macrophages with and without ingested L. major (Example 12); settings: for ultrastructure of macrophage: macrophage alone
[13] = Helicobacter pylori, 16 clinical isolates
[14] = read-out: inhibition of lymphocytes (lower figure)
[15] = read-out: percentage inhibition of lymphocyte proliferation response ±SEM

C=CC(C)(C)c1cc(/C=C/C(=O)c2ccc(O)cc2)c(OC)cc1O [Licochalcone A, licochalcone A]
parasite load in the liver and the spleen [1]: reduced to almost undetectable levels
inhibition at 1 µg/mL ([2]; 1 μg/ml): 2.1 ± 3.3%
inhibition at 2 µg/mL ([2]; 2 μg/ml): 10.3 ± 3.3%
inhibition at 5 µg/mL ([2]; 5 μg/ml): 18.9 ± 3.7%
inhibition at 10 µg/mL ([2]; 10 μg/ml): 29.7 ± 4.8%
inhibition at 20 µg/mL ([2]; 20 μg/ml): 47 ± 4.3%
IC50 ([3]; Plasmodium falciparum, DD2, read-out: concentration in which parasite growth was retarded by 50%): 0.5 to 1 µg/mL (≈ 1.48 to 2.96 µM)
Growth in % of control (mean ± SEM) ([3]; 0.1 μg/ml): 5.0 ± 2.0%
Growth in % of control (mean ± SEM) ([3]; 0.5 μg/ml): 41.0 ± 4.0%
Growth in % of control (mean ± SEM) ([3]; 1 μg/ml): 66.0 ± 3.0%
Growth in % of control (mean ± SEM) ([3]; 5 μg/ml): 98.0 ± 1.0%
Growth in % of control (mean ± SEM) ([3]; 10 μg/ml): 99.0 ± 0.0001%
MIC [4]: 500 µg/mL (≈ 1480 µM)
MIC [5]: 4 µg/mL (≈ 11.8 µM)
MIC [6]: 4000 to 8000 µg/mL (≈ 11800 to 23600 µM)
MIC Range ([7]; 16 clinical isolates): 16 to 125 µg/mL
MIC50 [7, 13]: 62 µg/mL (≈ 183 µM)
MIC90 [7, 13]: 125 µg/mL (≈ 369 µM)
MIC ([7]; Helicobacter pylori, read-out: MIC of the only strain with a low MIC): 16 µg/mL
MIC ([8]; microaerophilic conditions): > 500 µg/mL
MIC ([8]; normal atmosphere): 4 µg/mL (≈ 11.8 µM)
Species with MIC ≦ 20 μg/ml [9]: M. kansasii and M. xenophii and M. marinum and M. tuberculosis and M. bovis and BCG
concentration in serum ([10]; 4 hours after oral administration, 1000 mg per kg as printed): 160 ng/mL
concentration at 24 h ([10]; rat, serum, oral, 1000 mg per kg, after 24 hours, detection limit of the assay): < 50 ng/mL
concentration at 4 h ([10]; rat, serum, po, 1000 mg per kg, 4 hours after oral administration, 1000 mg per kg as printed): 140 ng/mL
inhibition at 0.5 µg/mL [11, 14]: 4.7%
inhibition at 1 µg/mL [11, 14]: 7.7%
inhibition at 5 µg/mL [11, 14]: 20.8%
inhibition at 10 µg/mL [11, 14]: 39.7%
inhibition at 1 µg/mL [11, 15]: 4.7 ± 5.6%
inhibition at 2 µg/mL [11, 15]: 7.8 ± 5.7%
inhibition at 5 µg/mL [11, 15]: 20.8 ± 4.8%
inhibition at 10 µg/mL [11, 15]: 39.7 ± 5.4%
inhibition at 20 µg/mL [11, 15]: 65.3 ± 7%
intracellular amastigotes, electron microscopy ([12]; macrophage + L. major, 10 μg/ml): Most of the intracellular amastigotes were now killed
ultrastructure of macrophage ([12]; 5 μg/ml): No changes compared to the control culture
ultrastructure of macrophage ([12]; 10 μg/ml): No changes compared to the control culture
